Test results published in PubChem BioAssay (NCI).
Several values for one entry are separate records, joined by “and”; a condition that tells them apart may be missing. Equal values may be shown once.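 Growth conditions: 96-well plates. Treatment: test compound, 48 hours, 5 concentrations. Analysis: linear interpolation between bracketing concentrations; unreached endpoints set to highest concentration. Abbreviation: GI50, concentration required for 50% inhibition of growth. The concentration for full growth arrest is given as TGI.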

Tests used:
Assay in all cases: DTP human tumour cell line panel, 48 h
COLO 205 colon = tested on: COLO 205 colon
EKVX NSCLC = tested on: EKVX NSCLC
HOP-62 NSCLC = tested on: HOP-62 NSCLC
SF-295 CNS = tested on: SF-295 CNS
SK-MEL-2 melanoma = tested on: SK-MEL-2 melanoma
U251 CNS = tested on: U251 CNS
A498 renal = tested on: A498 renal
MDA-MB-231 breast = tested on: MDA-MB-231 breast
NCI/ADR-RES ovarian = tested on: NCI/ADR-RES ovarian
CAKI-1 renal = tested on: CAKI-1 renal

| SMILES | TGI (COLO 205 colon) [µM] | TGI (EKVX NSCLC) [µM] | TGI (HOP-62 NSCLC) | TGI (SF-295 CNS) | TGI (SK-MEL-2 melanoma) [µM] | TGI (U251 CNS) | GI50 (A498 renal) [µM] | TGI (A498 renal) [µM] | GI50 (COLO 205 colon) [µM] | GI50 (EKVX NSCLC) [µM] | GI50 (HOP-62 NSCLC) [µM] | GI50 (MDA-MB-231 breast) [µM] | TGI (MDA-MB-231 breast) [µM] | GI50 (NCI/ADR-RES ovarian) [µM] | TGI (NCI/ADR-RES ovarian) [µM] | GI50 (SK-MEL-2 melanoma) | GI50 (U251 CNS) [µM] | TGI (CAKI-1 renal) | GI50 (SF-295 CNS) [µM] | GI50 (CAKI-1 renal) [µM] |
| --- | --- | --- | --- | --- | --- | --- | --- | --- | --- | --- | --- | --- | --- | --- | --- | --- | --- | --- | --- | --- |
| COc1cccc2c(SCC(=O)Nc3ccccc3-c3ccccc3NC(=O)CSc3c4ccccc4nc4c(OC)cccc34)c3ccccc3nc12 | > 100 | 95 | > 100 µM | > 100 µM | > 100 | > 100 µM |  |  |  |  |  |  |  |  |  |  |  |  |  |  |
| CC(=O)CCc1ccc(Oc2c3c(nc4ccccc24)OCC3)cc1 | > 100 | 98.6 | > 100 µM |  | > 100 | > 100 µM | 9.22 | 50.1 | > 100 | 13.8 | > 100 | 52 | > 100 | 29.5 | > 100 | > 100 µM | 41.7 |  |  |  |
| O=C(O)/C(Cl)=C(Cl)/C=N/NC(=O)c1cc2ccccc2cc1O | > 100 | > 100 | > 100 µM | > 100 µM | 79.3 | > 100 µM |  | > 100 |  |  |  |  |  |  |  |  |  | > 100 µM |  |  |
| Cc1ccc(C)c(NC(=O)C(=O)C2C(=O)N(c3ccccc3)N=C2N)c1 (configuration not stated) |  | > 100 | > 100 µM | > 100 µM | > 100 | > 100 µM |  | > 100 |  |  |  |  |  |  |  |  |  | > 100 µM |  |  |
| O=c1cc(-c2ccccc2)oc2cc(OCCCCCN3CCOCC3)cc(O)c12 | > 100 | > 100 | 23.1 µM | > 100 µM | 91.7 | 45.5 µM | 33.7 | 82.9 | > 100 | > 100 | 10.2 | 15.6 | 63.7 | 72 | > 100 | 25.4 µM | 18.6 |  | 40.2 |  |
| COc1ccc(NC(=O)c2oc3cc(O)ccc3c(=O)c2C)c([N+](=O)[O-])c1 | > 100 | > 100 | > 100 µM | > 100 µM | > 100 | > 100 µM |  | > 100 |  |  |  |  |  |  |  |  |  | > 100 µM |  |  |
| COc1cc(C2c3cc4c(cc3[C@@H](Nc3ccc([N+](=O)[O-])cc3)C3COC(=O)[C@H]23)OCO4)cc(OC)c1O (some centres not stated) | 10.1 | 17.2 | 0.947 µM and 2.07 µM | 4.85 µM | 10.7 | 7.69 µM | 0.536 | 4.8 |  |  |  |  |  |  | > 93.6 |  | 0.418 | 0.941 µM and 5.06 µM |  | 0.154 |
| COc1ccc(/C=C\c2cc(OC)c(OC)c(OC)c2)cc1OC(=O)CC(N)C(=O)O (configuration not stated) | 21 | > 100 | > 100 µM | 0.00305 µM and 0.00613 µM | 0.00812 | 0.00855 µM and 0.0702 µM |  | 0.00888 | 4.11 |  |  | 0.00402 | 0.00404 |  | 0.000534 | 0.00151 µM and 0.00249 µM | 0.000352 |  | 0.000726 |  |
| CCCCCN(CCCCC)C(=O)[C@H](CCC(=O)O)NC(=O)c1cc2ccccc2[nH]1 | > 100 | > 100 | > 100 µM | > 100 µM | > 100 | > 100 µM |  | > 100 |  |  |  |  |  |  |  |  |  | > 100 µM |  |  |
| C[C@]12Cc3conc3C(O)=C1CC[C@@H]1C2CC[C@@]2(C)C1CC[C@]2(C)O (some centres not stated) | 52.1 | 87.6 | 64.2 µM | 74.3 µM | 39.3 | 48.9 µM |  | 51.9 |  |  |  |  |  |  |  |  |  |  |  |  |
| COC(=O)C(=O)C(C(C)=O)C(=O)NCc1ccccc1 (configuration not stated) | > 100 | > 100 | > 100 µM | > 100 µM | > 100 | > 100 µM |  | > 100 |  |  |  |  |  |  |  |  |  | > 100 µM |  |  |
| Cc1c(Cl)cccc1NC(=O)c1sc2nc3c(cc2c1N)C(=O)CCC3 | 0.344 |  | 29.8 µM | > 100 µM | > 56 | > 37.4 µM | 0.023 | 0.203 | 0.05 |  | 0.102 | 0.138 | 16.5 | 0.0463 | 12.9 | 0.044 µM | 0.0836 | > 100 µM | 0.0429 | 0.0461 |
| CSc1nnc(-c2cc3c([nH]c4ccccc43)c(-c3cccc(O)c3)n2)n1-c1ccc(C)cc1 | 43.6 | > 100 | 7.45 µM | 9.62 µM | 6.61 | 28.7 µM | 1.73 | 7.14 | 4.49 | 4.51 | 2.47 | 3.31 | 15.8 | 5.64 | > 100 | 2.11 µM | 4.84 |  | 2.59 |  |
| CC(=O)[CH-]C(=O)c1ccccc1.CC(=O)[CH-]C(=O)c1ccccc1.CC[C@H](/C=C/C(C)[C@H]1CCC2[C@@H]3CC=C4C[C@@H]([O-])CC[C@]4(C)C3CC[C@@]21C)C(C)C.CC[C@H](/C=C/C(C)[C@H]1CCC2[C@@H]3CC=C4C[C@@H]([O-])CC[C@]4(C)C3CC[C@@]21C)C(C)C.Cl.[Ti+4] (some centres not stated) | > 25 | > 25 | > 25 µM | > 25 µM | > 25 | > 25 µM | > 25 | > 25 | > 25 | > 25 | > 25 |  |  |  |  | > 25 µM | > 25 | > 25 µM | > 25 | > 25 |
| N#CC(C(=N/O)/C(=N\O)C(C#N)c1ccccc1)c1ccccc1 (configuration not stated) | > 100 | > 100 | > 100 µM | > 100 µM | > 100 | > 100 µM |  | > 100 |  |  |  |  |  |  |  |  |  |  |  |  |
| Cc1cc(Cl)ccc1N=C1NC(=O)C(CC(=O)Nc2cccc(C)c2C)S1 (configuration not stated) | 46.2 | > 100 | 62.6 µM | 81.2 µM | 46.9 | 74.5 µM |  | 50.5 |  |  |  |  |  |  |  |  |  | 54.5 µM |  |  |
| O=C1NC2(CCCCC2)C2CCCCC=C12 (configuration not stated) | > 100 | > 100 | > 100 µM | > 100 µM | > 100 | > 100 µM |  | > 100 |  |  |  |  |  |  |  |  |  | > 100 µM |  |  |
